In patent publication US4757151A, “2-substituted-[2-substituted-amino]-N-arylalkyl-3-[indol-3-yl]” (Warner-Lambert Company, priority 1986, dated 1988):

What was measured:
[1] = percent repression of food intake (appetite suppression) in laboratory rats trained to a six hour feeding period; type: in vivo, adult male Wistar rats
From the text: In this screen, adult male Wistar rats weighing between 250-400 g were housed individually and trained to consume their daily intake of food within a six hour period. Food was then withdrawn for the remaining eighteen hour period of each day. Drinking water was available at all times, and the animals were maintained on a twelve hour light/twelve hour dark cycle. This training regimen was maintained for a seven-day period. Powdered, rather than pelletized, food was used to minimize spillage and to facilitate measurement of food intake.
On each test day, a group of twelve rats was used, six receiving a single dose of test compound and six serving as a control group. Immediately after dosing, the rats were allowed access to food. Food intake was then monitored over the next six-hour period. The food hoppers were weighed at intervals of 30 minutes, and at 1, 2, 3, 4, 5, and 6 hours after administration of the test compound. The percent repression of food intake of laboratory rats under these conditions for the prior art octapeptide, CCK26-33, and for several compounds of the present invention appear in Table 2.

CCK receptor = molecular target: T1, CCK receptor (Mus musculus, UniProt P56481); assay: displacement of tritiated pentagastrin binding to mouse cerebral cortical membranes (CCK receptor binding screening test); design: species or system male CFLP mice; settings: tritiated pentagastrin (2 nM) displacement, Cheng-Prusoff
T1 construct: the cerebral cortices from male CFLP mice weighing between 30-40 g were dissected on ice, weighed and homogenized; from tissue; host or cells: cerebral cortex membranes of male CFLP mice
T1 sequence (P56481 1-453): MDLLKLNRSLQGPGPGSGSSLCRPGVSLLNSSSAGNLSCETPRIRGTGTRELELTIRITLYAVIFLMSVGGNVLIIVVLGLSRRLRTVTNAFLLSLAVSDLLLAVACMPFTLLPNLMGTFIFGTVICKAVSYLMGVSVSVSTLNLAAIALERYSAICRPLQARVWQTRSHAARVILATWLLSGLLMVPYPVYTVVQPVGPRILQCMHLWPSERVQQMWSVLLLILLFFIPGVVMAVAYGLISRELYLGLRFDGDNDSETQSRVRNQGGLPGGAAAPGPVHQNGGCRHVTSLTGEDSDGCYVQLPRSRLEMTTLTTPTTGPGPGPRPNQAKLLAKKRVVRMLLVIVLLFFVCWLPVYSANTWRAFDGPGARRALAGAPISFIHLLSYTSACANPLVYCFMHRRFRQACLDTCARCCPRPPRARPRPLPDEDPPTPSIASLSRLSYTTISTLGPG
Method: The biological activities of compounds of this invention were evaluated employing an initial screening test which rapidly and accurately measured the binding of the tested compound to known CCK receptor cites. […] (See Hays et al., Neuropeptides, 1: 53-62 (1980); and Sauter et al., Science, 208: 1155-1156 (1980).
In the screening test, the cerebral cortices from male CFLP mice weighing between 30-40 g were dissected on ice, weighed and homogenized in 10 volumes of 50 mM Tris-HCl buffer (pH 7.4 at 0°-4° C.). The resulting suspension was centrifuged, the supernate was discarded, and the pellet was washed by resuspension in Tris-HCl buffer followed by recentrifugation.
The final pellet was resuspended in 10 volumes of 10 mM Hepes buffer (pH 7.2 at 23° C.) containing 130 mM NaCl, 4.7 mM KCl, 1 mM EDTA, 5 mg/ml bovine albumin, and bacitracin (0.25 mg/ml). […]
Following incubation, radioactivity bound to membranes was separated from that free in solution by rapid filtration through Whatman GF/B filters and washed three times with 4-ml portions of ice-cold Tris-HCl buffer. Filters from samples incubated with tritiated pentagastrin were placed in polyethylene vials with 8 ml of scintillation cocktail, and the radioactivity was estimated by scintillation spectrometry (efficiency 47-52%). […]
Saturation curves for specific tritiated pentagastrin binding to mouse cortical membranes were analyzed by statisitcal methods to provide estimates for the maximum number of binding sites (Bmax) and the equilibrium dissociation constant (Kd).
In the displacement experiements, inhibition curves were analyzed by logit-log plots to provide estimates of the IC50 and nH (apparent Hill coefficient) values. […]
The inhibition constant, Ki, of the test compound was then calculated according to the Cheng-Prusoff equation: [formula] where [L] is the molar concentration of radiolabel and Kd is the equilibrium dissociation constant.

Row | Compound | Ki (CCK receptor) | Percent Repression of Food Intake After 0.5 Hours ([1]; I.P. 100 mg/kg) | Percent Repression of Food Intake After 1.0 Hours ([1]; I.P. 100 mg/kg) | Percent Repression of Food Intake After 3.0 Hours ([1]; I.P. 100 mg/kg) | Percent Repression of Food Intake After 6.0 Hours ([1]; I.P. 100 mg/kg) | Percent Repression of Food Intake After 0.5 Hours ([1]; I.P. 300 mg/kg) | Percent Repression of Food Intake After 1.0 Hours ([1]; I.P. 300 mg/kg) | Percent Repression of Food Intake After 3.0 Hours ([1]; I.P. 300 mg/kg) | Percent Repression of Food Intake After 6.0 Hours ([1]; I.P. 300 mg/kg) | further results
1 | CC(C)(C)OC(=O)N[C@@](C)(Cc1c[nH]c2ccccc12)C(=O)N[C@@H](Cc1ccccc1)C(N)=O (single isomer, unassigned) [Example 2, N-[(1,1-Dimethylethoxy)carbonyl]-α-methyltryptophyl-L-phenylalaninamide] | 6 µM | 66% | 54% | 1% | 0% | – | – | – | – | Percent Repression of Food Intake After 0.5 Hours ([1]; I.P. 4 mg/kg): 24%; Percent Repression of Food Intake After 1.0 Hours ([1]; I.P. 4 mg/kg): 13%; Percent Repression of Food Intake After 3.0 Hours ([1]; I.P. 4 mg/kg): 19%; Percent Repression of Food Intake After 6.0 Hours ([1]; I.P. 4 mg/kg): 14%
2 | CC(Cc1c[nH]c2ccccc12)(NC(=O)OC(C)(C)C(Cl)(Cl)Cl)C(=O)NCCc1ccccn1 (racemic) [Example 19, (±)-[1-(1H-Indol-3-ylmethyl)-1-methyl-2-oxo-2-[[2-(2-pyridinyl)ethyl]amino]ethyl]carbamic acid, 2,2,2-trichloro-1,1-dimethylethyl ester] | – | – | – | – | – | 35% | 49% | 60% | 55% | Percent Repression of Food Intake After 0.5 Hours ([1]; P.O. 300 mg/kg): 78%; Percent Repression of Food Intake After 1.0 Hours ([1]; P.O. 300 mg/kg): 68%; Percent Repression of Food Intake After 3.0 Hours ([1]; P.O. 300 mg/kg): 52%; Percent Repression of Food Intake After 6.0 Hours ([1]; P.O. 300 mg/kg): 52%
3 | CCK26-33: prior art octapeptide, carboxyl-terminus fragment of cholecystokinin [reference compound] | – | – | – | – | – | – | – | – | – | Percent Repression of Food Intake After 0.5 Hours ([1]; I.P. 5 mg/kg): 50%; Percent Repression of Food Intake After 1.0 Hours ([1]; I.P. 5 mg/kg): 40%; Percent Repression of Food Intake After 3.0 Hours ([1]; I.P. 5 mg/kg): 3%; Percent Repression of Food Intake After 6.0 Hours ([1]; I.P. 5 mg/kg): 12%

Continued, in another order:

Row | Ki (CCK receptor) | Compound | Percent Repression of Food Intake After 0.5 Hours ([1]; I.P. 100 mg/kg) | Percent Repression of Food Intake After 1.0 Hours ([1]; I.P. 100 mg/kg) | Percent Repression of Food Intake After 3.0 Hours ([1]; I.P. 100 mg/kg) | Percent Repression of Food Intake After 6.0 Hours ([1]; I.P. 100 mg/kg) | Percent Repression of Food Intake After 0.5 Hours ([1]; I.P. 300 mg/kg) | Percent Repression of Food Intake After 1.0 Hours ([1]; I.P. 300 mg/kg) | Percent Repression of Food Intake After 3.0 Hours ([1]; I.P. 300 mg/kg) | Percent Repression of Food Intake After 6.0 Hours ([1]; I.P. 300 mg/kg) | further results
4 | 6.8 µM | CCC(C)(C)OC(=O)NC(C)(Cc1c[nH]c2ccccc12)C(=O)NC(CO)Cc1ccccc1 (stereo not shown) [Example 7, [2-[[1-(Hydroxymethyl)-2-phenylethyl]-amino]-1-(1H-indol-3-ylmethyl)-1-methyl-2-oxoethyl]-carbamic acid, 1,1-dimethylpropyl ester] | – | – | – | – | 64% | 45% | 23% | 11% | –
5 | 6.5 µM | CCC(C)(C)OC(=O)NC(C)(Cc1c[nH]c2ccccc12)C(=O)NCCc1ccccc1 (stereo not shown) [Example 6, [1-(1H-Indol-3-ylmethyl)-1-methyl-2-oxo-2-[(2-phenylethyl)amino]ethyl]-carbamic acid, 1,1-dimethylpropyl ester] | 8% | 22% | 36% | 13% | – | – | – | – | –
